In brackets after ≈: the same amount, converted by molar mass. Where two headings read alike, the source gives them in different places. No end group written: not given here.
Experiments:
[1] = test system: porcine erythrocytes
Method: Blood was collected from porcine vena cava with heparin added, and mixed with RPMI1640 medium at a volume ratio of 1:1. After centrifuging with FICOLL-PAQUE™, circular and milky peripheral blood mononuclear cells (PMBCs) were drawn for later use, and erythrocytes at the bottom were collected. The erythrocytes were washed with 1×PBS until the supernatant was colorless. Then the washed erythrocytes were diluted 90-fold (1:89) with 1×PBS to determine hemolysis activity.
Triton X-100 (final concentration 1%) was used as positive control, and 10 uL 1×PBS was used as negative control. Each group was performed with 6 replications. Cells were cultured for 24 hrs at 37° C. in a cell culture incubator, and followed by centrifugation at 1500 rpm for 20 min. Then supernatant was transferred to a new 96-well plate to measure the values of OD at 414 nm and 546 nm using a microplate reader, and ΔOD was calculated. The formula for calculating hemolysis ratio is as follows: hemolysis ratio (%)=100%*(ΔOD treatment group−ΔOD negative control)/(ΔOD positive control−ΔOD negative control).
(§1) The aforementioned antimicrobial peptides were used as controls in the same experiments described in the second, third, fourth and fifth embodiments.

[2] = test system: S. choleraesuis CMCC50020
From the text: The above results are average of 6 independent experimental repeats.

[3] = test system: S. typhimurium CMCC50013
Method: (§2) Bacteria was inoculated on Mueller-Hinton (MH) agar plate, the inoculated agar plate was inverted to grow single colonies. A single colony was inoculated in 3 mL MH broth, and the broth was cultured with constant shaking at constant temperature until turbid. 30 μL of bacterial suspension was then transferred to 3 mL of fresh MH broth, and the broth was cultured with shaking at constant temperature until OD600≈0.5. 10 μL bacterial suspension was transferred to 10 mL fresh MH broth and then vortexed to mix well. […] In addition, 100 μL of bacterial suspension was added to a well as positive control, and 100 μL of MH broth was added to a well as negative control. Each testing condition and controls was performed with 6 repeats.
as §1

[4] = test system: E. coli K 12
Method: as §2, §1

[5] = test system: E. coli EPEC O78:K80
Method: as §2, §1

[6] = test system: E. coli EPEC O144:K26
Method: as §2, §1

[7] = test system: P. aeruginosa CMCC27853
Method: as §2, §1

[8] = test system: E. coli EPEC O44:K74
Method: as §2, §1

[9] = test system: E. coli ATCC25922
Method: as §2, §1

[10] = test system: E. coli K 88
Method: as §2, §1

[11] = test system: S. aureus ATCC25923
Method: as §2, §1

[12] = test system: S. enteritidis CMCC50041
Method: as §2, §1

[13] = test system: S. epidermidis ATCC12228
Method: as §2, §1

[14] = test system: Porcine macrophage cells (3D4/2 cell line); test: LPS-induced inflammation in porcine macrophages (cytokine mRNA); format: cell-based; conditions: FIG. 5
Method: Porcine macrophage cells (3D4/2 cell line) were cultured on RPMI-1640 medium with 10% fetal bovine serum, at 37° C. in a 5% CO2 cell incubator, until the cells formed a monolayer with about 80-90% confluency. The cells were counted and plated. The cells were seeded to a 6-well plate at 1×10^6/well, RPMI-1640 complete medium was added, and the cells were cultured to 80% confluency. Then the medium was replaced by fresh serum-free RPMI-1640 medium (2 mL). […] Each group of experiments was repeated for six replications. After incubation for 24 hrs, cells were collected and total RNA was extracted using Trizol. cDNA was obtained by reverse transcription. Relative mRNA expression of IL-6, IL-8 and IL-22 was detected. The relative mRNA expression of IL-22, IL-8 and IL-6 were measured by quantitative fluorescence method. GAPDH gene was used as a internal reference gene.

[15] = test system: porcine peripheral mononuclear cells; conditions: porcine PBMCs, peptide ≦256 μg/mL, 24 hrs
Method: Purified PBMCs were diluted to 1×10^6 cells/mL, and cells were seeded with 90 uL per well in a 96-well plate. Further, background control well (100 μL RMPI1640 medium), low level control well (90 μL cell culture+10 μL PBS), and high level control well (90 μL cell culture+10 μL 20% Triton X-100) were also prepared. The 96-well plate was cultured at 37° C. for 2 hrs in a 5% CO2 incubator. […] Each group of experiment (each concentration) was repeated for six replications. After culturing for 24 hrs, 10 μL TritonX-100 (20%) was added to each positive control well, and mixed by pipetting. The plate was further incubated for 15 min. After culturing, the cells were centrifuged at 1500 rpm for 10 min. 60 μL of supernatant was drawn carefully from the center of each well and transferred to corresponding wells of a transparent new 96-well plate. 30 uL of LDH diluent was added to each well. The plate was cultured at room temperature for 30 min with vibration in a dark environment. OD values were recorded at 492 nm and 900 nm using a microplate reader for calculating ΔOD value. […]

For `CC(C)C[C@H](NC(=O)[C@H](CCCNC(=N)N)NC(=O)CNC(=O)CNC(=O)[C@@H](N)CCCNC(=N)N)C(=O)N[C@H]1CSSC[C@@H](C(=O)N[C@H](C(=O)NCC(=O)N[C@@H](CCCNC(=N)N)C(N)=O)C(C)C)NC(=O)[C@H](C(C)C)NC(=O)[C@@H]2CSSC[C@H](NC(=O)[C@H](Cc3ccc(O)cc3)NC1=O)C(=O)N[C@@H](CCCNC(=N)N)C(=O)N[C@@H](CCCNC(=N)N)C(=O)N[C@@H](CCCNC(=N)N)C(=O)N[C@@H](Cc1ccccc1)C(=O)N2` [PG-1], the “hemolysis activity (compared with WY-21)” value ([1]; FIG. 4) was “higher than WY-21”, the MIC ([2]; CMCC50020, 24 h) was 4 µg/mL (≈ 1.86 µM) and the MIC ([3]; CMCC50013, 24 h) was 4 µg/mL (≈ 1.86 µM). The MIC ([4]; K 12, 24 h) was 8 µg/mL (≈ 3.71 µM), the MIC ([5]; EPEC O78:K80, 24 h) was 16 µg/mL (≈ 7.42 µM) and the MIC ([6]; EPEC O144:K26, 24 h) was 64 µg/mL (≈ 29.7 µM). The MIC ([7]; CMCC27853, 24 h) was 8 µg/mL (≈ 3.71 µM), the MIC ([8]; EPEC O44:K74, 24 h) was 32 µg/mL (≈ 14.8 µM) and the MIC ([9]; ATCC25922, 24 h) was 4 µg/mL (≈ 1.86 µM). The MIC ([10]; K 88, 24 h) was 8 µg/mL (≈ 3.71 µM), the MIC ([11]; ATCC25923, 24 h) was 2 µg/mL (≈ 0.928 µM) and the MIC ([12]; CMCC50041, 24 h) was 16 µg/mL (≈ 7.42 µM). The MIC ([13]; ATCC12228, 24 h) was 4 µg/mL (≈ 1.86 µM).
For SWLSKTAKKLENSAKKRIAIAIQGGPR [CP-1], the “effect on LPS-induced inflammation” value [14] was “no effects”, the MIC ([2]; CMCC50020, 24 h) was 8 µg/mL and the MIC ([3]; CMCC50013, 24 h) was 8 µg/mL. It also gave an MIC ([4]; K 12, 24 h) of 8 µg/mL, an MIC ([5]; EPEC O78:K80, 24 h) of 16 µg/mL and an MIC ([6]; EPEC O144:K26, 24 h) of 128 µg/mL. The MIC ([7]; CMCC27853, 24 h) was 16 µg/mL, the MIC ([8]; EPEC O44:K74, 24 h) was 32 µg/mL and the MIC ([9]; ATCC25922, 24 h) was 4 µg/mL. It also gave an MIC ([10]; K 88, 24 h) of 4 µg/mL, an MIC ([11]; ATCC25923, 24 h) of 128 µg/mL and an MIC ([12]; CMCC50041, 24 h) of 16 µg/mL. The MIC ([13]; ATCC12228, 24 h) was 128 µg/mL.
VKFFRKLKKSVKEKIGKEFKR [WY-21] was tested, and the LDH releasing rate [15] was “less than 10%”, the hemolysis ratio ([1]; peptide 512 μg/mL, 24 hrs at 37° C.) was “less than 5%” and the MIC ([2]; S. choleraesuis CMCC50020, 24 hrs at 37° C., MH broth) was 16 µg/mL. It also gave an MIC ([3]; S. typhimurium CMCC50013, 24 hrs at 37° C., MH broth) of 16 µg/mL, an MIC ([4]; E. coli K 12, 24 hrs at 37° C., MH broth) of 4 µg/mL and an MIC ([5]; E. coli EPEC O78:K80, 24 hrs at 37° C., MH broth) of 16 µg/mL. It also gave an MIC ([6]; E. coli EPEC O144:K26, 24 hrs at 37° C., MH broth) of 16 µg/mL, an MIC ([7]; P. aeruginosa CMCC27853, 24 hrs at 37° C., MH broth) of 8 µg/mL and an MIC ([8]; E. coli EPEC O44:K74, 24 hrs at 37° C., MH broth) of 8 µg/mL. The MIC ([9]; E. coli ATCC25922, 24 hrs at 37° C., MH broth) was 8 µg/mL, the MIC ([10]; E. coli K 88, 24 hrs at 37° C., MH broth) was 8 µg/mL and the MIC ([11]; S. aureus ATCC25923, 24 hrs at 37° C., MH broth) was 8 µg/mL. For the same molecule, the MIC ([12]; S. enteritidis CMCC50041, 24 hrs at 37° C., MH broth) was 64 µg/mL and the MIC ([13]; S. epidermidis ATCC12228, 24 hrs at 37° C., MH broth) was 32 µg/mL.

— patent US9475843B2 (Zhejiang University, priority 2015, dated 2016)
